# Target: T1, Human HPK1, catalytic domain (Homo sapiens, UniProt Q92918)
# T1 sequence (Q92918 1-346): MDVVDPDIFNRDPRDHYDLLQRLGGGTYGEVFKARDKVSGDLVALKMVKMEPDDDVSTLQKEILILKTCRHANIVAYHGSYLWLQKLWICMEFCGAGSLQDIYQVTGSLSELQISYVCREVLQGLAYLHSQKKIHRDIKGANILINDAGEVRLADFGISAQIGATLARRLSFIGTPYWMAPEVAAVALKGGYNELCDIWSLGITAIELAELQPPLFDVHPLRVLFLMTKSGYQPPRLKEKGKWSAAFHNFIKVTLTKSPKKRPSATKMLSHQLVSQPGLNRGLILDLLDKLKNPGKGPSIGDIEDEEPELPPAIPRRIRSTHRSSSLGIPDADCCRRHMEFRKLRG
# Test: HPK1-SLP76 TR-FRET Assay
# Format: biochemical
# Conditions: 75 pM HPK1, ATP 10 uM, SLP76 10 nM, 30 min pre-incubation, 60 min reaction
row,Structure (SMILES),IC50 [nM]
1,"Cc1c(-c2cc3nc(Nc4cccc5c4CC(C)(C)N(C)C5)ncc3c(N)c2F)cnc2c1NCCO2 (single isomer, unassigned) [Compound 2-127]",100
2,"COc1cc2c(cc1Nc1ncc3c(N)c(F)c(-c4cc(C#N)ccc4C)cc3n1)CN(C)CC2 [Compound 2-51, 3-(5-amino-6-fluoro-2-((6-methoxy-2-methyl-1,2,3,4-tetrahydroisoquinolin-7-yl)amino)quinazolin-7-yl)-4-methylbenzonitrile]",474
3,"COc1cc2c(cc1Nc1ncc3ccc(-c4ccc(F)cc4CN)cc3n1)CN(C)CC2 [Compound 1-8, 7-[2-(aminomethyl)-4-fluorophenyl]-N-(6-methoxy-2-methyl-1,2,3,4-tetrahydroisoquinolin-7-yl)quinazolin-2-amine]",403
4,"Cc1c(-c2c(F)c(N)c3cnc(Nc4ccc5c(c4)CN(C(C)C)CC5)nc3c2Cl)cnc2c1NCCO2 [Compound 2-96, (+ or −)-8-chloro-6-fluoro-7-(8-methyl-2,3-dihydro-1H-pyrido[2,3-b[1,4]oxazin-7-yl)-N~2~- [2-(propan-2-yl)-1,2,3,4-tetrahydroisoquinolin-7-yl]quinazoline-2,5-diamine]",0.0825
5,"CNC(=O)C1CCc2cc(Nc3ncc4cc(F)c(-c5cnc6c(c5C)NCCO6)cc4n3)ccc21 (single isomer, unassigned) [Compound 1-119, (R or S)-5-{[6-fluoro-7-(8-methyl-2,3-dihydro-1H-pyrido[2,3-b][1,4]oxazin-7-yl)quinazolin-2-yl]amino}-N-methyl-2,3-dihydro-1H-indene-1-carboxamide]",1.17
6,"COc1cc2c(cc1Nc1ncc3ccc(-c4cccc(C(C)=O)c4)cc3n1)CNCC2 [Compound 1-66, 1-(3-{2-[(6-methoxy-1,2,3,4-tetrahydroisoquinolin-7-yl)amino]quinazolin-7-yl}phenyl)ethan-1-one]",130
7,"Cc1c(-c2cc3nc(Nc4ccc(NS(C)(=O)=O)cc4)ncc3c(N)c2F)cnc2c1NCCO2 [Compound 2-16, N-(4-{[5-amino-6-fluoro-7-(8-methyl-2,3-dihydro-1H-pyrido[2,3-b][1,4]oxazin-7-yl)quinazolin-2-yl]amino}phenyl)methane-sulfonamide]",0.0932
8,"CNC(=O)c1ccc(Nc2ncc3c(N)c(F)c(-c4c(Cl)nc5c(c4C)NCCO5)c(Cl)c3n2)c(OC)c1 [Compound 2-98, (+ or −)-4-{[5-amino-8-chloro-7-(6-chloro-8-methyl-2,3-dihydro-1H-pyrido[2,3-b][1,4]oxazin-7-yl)-6-fluoroquinazolin-2-yl]amino}-3-methoxy-N-methylbenzamide]",6.73
9,"COc1cc(CS(C)(=O)=O)ccc1Nc1ncc2c(N)c(F)c(-c3cnc4c(c3C)NCCO4)c(Cl)c2n1 (single isomer, unassigned) [Compound 2-101, (+ or −)-8-chloro-6-fluoro-N~2~-{2-methoxy-4-[(methylsulfony])methyl] phenyl}-7-(8-methyl-2,3-dihydro-1H-pyrido[2,3-b][1,4]oxazin-7-yl)quinazoline-2,5-diamine]",0.121
10,"Cc1c(-c2cc3nc(Nc4ccc(CS(C)(=O)=O)cc4)ncc3cc2F)cnc2c1NCCO2 [Compound 1-115, 6-fluoro-7-(8-methyl-2,3-dihydro-1H-pyrido[2,3-b][1,4]oxazin-7-yl)-N-(4-[(methylsulfonyl)methyl]phe-nyl}quinazolin-2-amine]",0.0508
11,"COc1cc2c(cc1Nc1ncc3ccc(Nc4cccc(C(=O)N(C)C)c4)cc3n1)CN(C)CC2 [Compound 3-34, 3-({2-[(6-methoxy-2-methyl-1,2,3,4-tetrahydroisoquinolin-7-yl)amino]quinazolin-7-yl}-amino)-N,N-dimethylbenzamide]",81.5
12,"Cc1c(-c2c(F)c(N)c3cnc(Nc4ccc5c(c4)CN(C(C)C)CC5)nc3c2Cl)cnc2c1NCCO2 (single isomer, unassigned) [Compound 2-113, 8-chloro-6-fluoro-N2-(2-isopropyl-1,2,3,4-tetrahydroisoquinolin-7-yl)-7-(8-methyl-2,3-dihydro-1H-pyrido[2,3-b][1,4]oxazin-7-yl)quinazoline-2,5-diamine]",0.0389
13,"Cc1c(-c2cc3nc(Nc4ccc(CCC#N)cc4)ncc3c(N)c2F)cnc2c1NCCO2 [Compound 2-116, 3-(4-{[5-amino-6-fluoro-7-(8-methyl-2,3-dihydro-1H-pyrido[2,3-b][1,4]oxazin-7-yl)quinazolin-2-yl]amino}phenyl)propane-nitrile]",0.142
14,"CNC(=O)C1CCc2cc(Nc3ncc4c(N)c(F)c(-c5cnc6c(c5C)NCCO6)cc4n3)ccc21 (stereo not shown) [Compound 2-188, 5-{[5-amino-6-fluoro-7-(8-methyl-2,3-dihydro-1H-pyrido[2,3-b][1,4]oxazin-7-yl)quinazolin-2-yl]amino}-N-methyl-2,3-dihydro-1H-indene-1-carboxamide]",0.0806
15,"CC(=O)N1CCCC1c1ccc(Nc2ncc3c(N)c(F)c(-c4cnc5c(c4C)NCCO5)cc3n2)cc1 (single isomer, unassigned) [Compound 2-28, (R or S)-1-[2-(4-{[5-amino-6-fluoro-7-(8-methyl-2,3-dihydro-1H-pyrido[2,3-b][1,4]oxazin-7-yl)quinazolin-2-yl]amino}phenyl)pyrrolidin-1-yl]ethan-1-one]",0.149
16,"COc1cc2c(cc1Nc1ncc3ccc(-c4ccc5c(c4)CCC(=O)N5)cc3n1)CNCC2 [Compound 1-88, 6-{2-[(6-methoxy-1,2,3,4-tetrahydroisoquinolin-7-yl)amino]quinazolin-7-yl}-3,4-dihydroquinolin-2(1H)-one]",96.9
17,"COc1cc2c(cc1Nc1ncc3ccc(-c4ccc(CN(C)C)cc4)cc3n1)CNCC2 [Compound 1-57, 7-{4-[(dimethylamino)methyl]phe-nyl}-N-(6-methoxy-1,2,3,4-tetrahydroisoquinolin-7-yl)quinazolin-2-amine]",79.2
18,"Cc1c(-c2cc3nc(Nc4ccc5c(c4)CN(C)CCC5)ncc3c(N)c2F)cnc2c1NCCO2 [Compound 2-117, 6-fluoro-7-(8-methyl-2,3-dihydro-1H-pyrido[2,3-b][1,4]oxazin-7-yl)-N~2~- (2-methyl-2,3,4,5-tetrahydro-1H-2-benzazepin-8-yl)quinazoline-2,5-diamine]",0.0406
19,"Cc1c(-c2c(F)c(N)c3cnc(Nc4cc5c(cc4F)CCN(C)C5)nc3c2Cl)cnc2c1NCCO2 [Compound 2-184, (+ and −)-8-chloro-6-fluoro-N~2~-(6-fluoro-2-methyl-1,2,3,4-tetrahydroisoquinolin-7-yl)-7-(8-methyl-2,3-dihydro-1H-pyrido[2,3-b][1,4]oxazin-7-yl)quinazoline-2,5-diamine]",3.67
20,"COc1cc2c(cc1Nc1ncc3ccc(N(C)CC4CNC(=O)O4)cc3n1)CN(C)CC2 (racemic) [Compound 3-30, (S and R)-5-1112-1(6-methoxy-2-methyl-1,2,3,4-tetrahydroiso-quinolin-7-yl)amino]quinazolin-7-yl}(methyl)amino]methyl}-1,3-oxazolidin-2-one]",148
21,"COc1cc2c(cc1Nc1ncc3ccc(-c4cccc(O)c4)cc3n1)CNCC2 [Compound 1-59, 3-{2-[(6-methoxy-1,2,3,4-tetrahydroisoquinolin-7-yl)amino]quinazolin-7-yl}phenol]",36.2
22,"COc1cc2c(cc1Nc1ncc3ccc(-c4ccccc4N4CCOC4=O)cc3n1)CN(C)CC2 [Compound 1-10, 3-(2-{2-[(6-methoxy-2-methyl-1,2,3,4-tetrahydroisoquinolin-7-yl)amino]quinazolin-7-yl}phenyl)-1,3-oxazolidin-2-one]",27
23,"COc1cc2c(cc1Nc1ncc3c(N)c(F)c(-c4cnc5c(c4C)NCCO5)cc3n1)CN(C(C)=O)CC2 [Compound 2-12, 1-[7-{[5-amino-6-fluoro-7-(8-methyl-2,3-dihydro-1H-pyrido[2,3-b][1,4]oxazin-7-yl)quinazolin-2-yl]amino}-6-methoxy-3,4-dihydroisoquinolin-2(1H)-yl]ethan-1-one]",685
24,"Cc1c(-c2c(F)c(N)c3cnc(Nc4ccc5c(c4)CN(C)CC54CC4)nc3c2Cl)cnc2c1NCCO2 [Compound 2-100, (+ or −)-8-chloro-6-fluoro-7-(8-methyl-2,3-dihydro-1H-pyrido[2,3-b][1,4]oxazin-7-yl)-N~2~- (2′-methyl-2′,3′-dihydro-1′H-spiro[cyclopropane-1,4′-isoquinolin]-7′-yl)quinazoline-2,5-diamine]",1.19
25,"COc1cc2c(cc1Nc1ncc3c(N)cc(-c4cnc5c(c4C)NCCO5)cc3n1)CN(C)CC2 [Compound 2-40, N~2~-(6-methoxy-2-methyl-1,2,3,4-tetrahydroisoquinolin-7-yl)-7-(8-methyl-2,3-dihydro-1H-pyrido[2,3-b][1,4]oxazin-7-yl)quinazoline-2,5-diamine]",0.633
26,"Cc1c(-c2cc3nc(Nc4ccc5c(c4)CN(C)CC5(F)F)ncc3c(N)c2F)cnc2c1NCCO2 [Compound 2-154, N~2~-(4,4-difluoro-2-methyl-1,2,3,4-tetrahydroisoquinolin-7-yl)-6-fluoro-7-(8-methyl-2,3-dihydro-1H-pyrido[2,3-b][1,4]oxazin-7-yl)quinazoline-2,5-diamine]",0.515
27,"Cc1c(-c2ccc3cnc(Nc4ccc(CS(=O)(=O)C(C)C)cc4)nc3c2)cnc2c1NCCO2 [Compound 1-129, N-(4-((isopropylsulfonyl)methyl)phenyl)-7-(8-methyl-2,3-dihydro-1H-pyrido[2,3-b][1,4]oxazin-7-yl)quinazolin-2-amine]",0.0917
28,"COc1cc2c(cc1Nc1ncc3ccc(-c4cccc5c4CNCC5)cc3n1)CN(C)CC2 [Compound 1-9, N-(6-methoxy-2-methyl-1,2,3,4-tetrahydroisoquinolin-7-yl)-7-(1,2,3,4-tetrahydroisoquinolin-8-yl)quinazolin-2-amine]",42.9
